How the values were obtained:
[1] = log P by HPLC (OECD Guideline 117), method [b] neutral range; type: physicochemical; settings: HPLC; for logP[b]: method [b] neutral range
Procedure: (§1) The log P values were determined analogously to OECD Guideline 117 (EC Directive 92/69/EEC) by HPLC (high-performance liquid chromatography) using reversed-phase columns (C 18), by the following methods:
[b] The LC-MS determination in the neutral range is effected at pH 7.8 with 0.001 molar aqueous ammonium hydrogencarbonate solution and acetonitrile as eluents; linear gradient from 10% acetonitrile to 95% acetonitrile.

Tetranychus urticae = Tetranychus urticae spray test, OP-resistant (TETRUR); type: in vivo; settings: after 6 days
Procedure: Tetranychus urticae—Spray Test, OP-Resistant (TETRUR)
• Solvent: 78.0 parts by weight of acetone • 1.5 parts by weight of dimethylformamide • Emulsifier: 0.5 part by weight of alkylaryl polyglycol ether
To produce an appropriate active ingredient formulation, 1 part by weight of active ingredient is mixed with the specified amounts of solvent and emulsifier, and the concentrate is diluted to the desired concentration with emulsifier-containing water.
Discs of bean leaves (Phaseolus vulgaris) infested by all stages of the greenhouse red spider mite (Tetranychus urticae) are sprayed with an active ingredient formulation of the desired concentration.
After 6 days, the efficacy in % is determined 100% means that all the spider mites have been killed; 0% means that none of the spider mites have been killed.

[2] = log P by HPLC (OECD Guideline 117), method [a] acidic range; type: physicochemical; settings: for logP[a]: HPLC, method [a] acidic range; for chromatographic logP: reversed-phase C18 HPLC column, acidic range
Procedure: as §1
[a] The LC-MS determination in the acidic range is effected at pH 2.7 with 0.1% aqueous formic acid and acetonitrile (contains 0.1% formic acid) as eluents; linear gradient from 10% acetonitrile to 95% acetonitrile.

| Compound | logP[b] [1] | logP[a] [2] | chromatographic logP ([1]; reversed-phase C18 HPLC column, neutral range, pH 7.8) | chromatographic logP ([2]; pH 2.7, HPLC method [a], read-out: logP[a]) | chromatographic logP ([2]; pH 2.7, HPLC, pH 2.7, read-out: log P[a]) | efficacy (Tetranychus urticae; application rate of 500 g/ha) | efficacy (Tetranychus urticae; application rate of 100 g/ha) | pest or weed control at 500 g/ha (Tetranychus urticae; Tetranychus urticae, 144 h, application rate of 500 g/ha, read-out: efficacy) |
| --- | --- | --- | --- | --- | --- | --- | --- | --- |
| Cc1cc(F)c(-n2nc([S+]([O-])CC3CC3)n(C)c2=O)cc1[S+]([O-])CC(F)(F)F (stereo not shown) [Example 248] | 1.98 | 2.03 | – | – | – | 100% | – | – |
| Cc1cc(F)c(-n2ncn(C3CC3)c2=O)cc1[S+]([O-])CC(F)(F)F (racemic) [Example 62] | 1.69 | 1.69 | – | – | – | – | 100% | – |
| COC1=CC(=O)N(c2cc([S+]([O-])CC(F)(F)F)c(C)cc2C)C1 (racemic) [Example 313] | 1.83 | 1.83 | – | – | – | 90% | – | – |
| COC1=CC(=O)N(c2cc([S+]([O-])CC(F)(F)F)c(Cl)cc2F)C1 (stereo not shown) [Example 324] | 2.11 | 2.13 | – | – | – | 100% | – | – |
| COc1nn(-c2cc([S+]([O-])CC(F)(F)F)c(F)cc2F)c(=O)n1C1CC1 (stereo not shown) [Example 170] | 2.11 | 2.15 | – | – | – | 100% | – | – |
| Cc1cc(F)c(-n2nc(C)n(-c3ccccc3)c2=O)cc1[S+]([O-])CC(F)(F)F (racemic) [Example 356] | 2.35 | 2.38 | – | – | – | 100% | – | – |
| Cc1cc(F)c(-n2nc(C3CCC3)n(C3CC3)c2=O)cc1[S+]([O-])CC(F)(F)F (racemic) [Example 88] | 2.66 | 2.72 | – | – | – | 100% | – | – |
| COc1nn(-c2cc([S+]([O-])CC(F)(F)F)c(C)cc2F)c(=O)n1C1CC1 (single isomer, unassigned) [Example 380] | 2.09 | 2.14 | – | – | – | 100% | – | – |
| O=c1n(-c2ccc(Cl)c(SCC(F)(F)F)c2)nc(C(F)(F)F)n1C1CC1 [Example 51] | 4.39 | 4.43 | – | – | – | 90% | – | – |

Second part, led by results:

| logP[b] [1] | logP[a] [2] | chromatographic logP ([1]; reversed-phase C18 HPLC column, neutral range, pH 7.8) | chromatographic logP ([2]; pH 2.7, HPLC method [a], read-out: logP[a]) | chromatographic logP ([2]; pH 2.7, HPLC, pH 2.7, read-out: log P[a]) | Compound | efficacy (Tetranychus urticae; application rate of 500 g/ha) | efficacy (Tetranychus urticae; application rate of 100 g/ha) | pest or weed control at 500 g/ha (Tetranychus urticae; Tetranychus urticae, 144 h, application rate of 500 g/ha, read-out: efficacy) |
| --- | --- | --- | --- | --- | --- | --- | --- | --- |
| 3.33 | 3.18 | – | – | – | C=CCn1c(SCCC)nn(-c2cc([S+]([O-])CC(F)(F)F)c(C)cc2F)c1=O (stereo not shown) [Example 430] | 90% | – | – |
| – | – | 2.46 | 2.52 | 2.52 | Cc1cc(F)c(-n2nc(C(F)(F)F)n(C)c2=O)cc1[S+]([O-])CC(F)(F)F (stereo not shown) [Example 12, 2-{2-Fluoro-4-methyl-5-[(2,2,2-trifluoroethyl)sulphinyl]phenyl}-4-methyl-5-(trifluoromethyl)-2,4-dihydro-3H-1,2,4-triazol-3-one] | – | – | 100% |
| 3.33 | 3.39 | – | – | – | Cc1cc(F)c(-n2nc(C3CC3)n(C3CC3)c2=O)cc1SCC(F)(F)F [Example 65] | 100% | – | – |
| 2.92 | 2.97 | – | – | – | Cc1cc(F)c(-n2nc(C3CC3)n(C)c2=O)cc1SCC(F)(F)F [Example 346] | 90% | – | – |
| 3.49 | 3.54 | – | – | – | Cc1cc(F)c(-n2nc(C(F)(F)F)n(C(C)(C)C)c2=O)cc1[S+]([O-])CC(F)(F)F (racemic) [Example 68] | 100% | – | – |
| 2.98 | 3.02 | – | – | – | Cc1cc(F)c(-n2nc(Br)n(C(C)(C)C)c2=O)cc1[S+]([O-])CC(F)(F)F (stereo not shown) [Example 441] | 100% | – | – |
| 2.04 | 2.05 | – | – | – | C=CCn1c([S+]([O-])CC)nn(-c2cc([S+]([O-])CC(F)(F)F)c(C)cc2F)c1=O (stereo not shown) [Example 424] | 90% | – | – |
| 3.71 | 3.77 | – | – | – | COc1ccccc1-c1nn(-c2cc(SCC(F)(F)F)c(C)cc2F)c(=O)n1C1CC1 [Example 366] | 100% | – | – |
| 2.99 | 3.03 | – | – | – | CNn1c(N(C)C)nn(-c2cc(SCC(F)(F)F)c(C)cc2F)c1=O [Example 216] | 100% | – | – |
| 4.17 | 4.24 | – | – | – | Cc1cc(F)c(-n2nc(Br)n(C(C)(C)C)c2=O)cc1SCC(F)(F)F [Example 438] | 100% | – | – |

Source: patent US9981940B2, “Aryl sulfide derivatives and aryl sulfoxide derivatives as acaricides and insecticides” (BAYER CROPSCIENCE AKTIENGESELLSCHAFT, priority 2013, dated 2018)
